Test systems include HT29 colon; COLO 205 colon; PC-3 prostate; TK-10 renal; SF-268 CNS; SR leukemia; SW-620 colon; U251 CNS; OVCAR-5 ovarian; HCT-15 colon.
What all share (experiment): growth of human tumour cells (NCI), 48 h

Values joined by “and” are separate entries in the source; they are usually repeats but may differ in a detail not shown here. Equal entries are not always repeated.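 48-hour exposure; five concentrations; linearly interpolated endpoints. GI50: concentration for 50% inhibition of growth. The concentration for full growth arrest is given as TGI.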

`CC[C@@]12CC(C(=O)OC)=C3Nc4ccccc4[C@@]34CCN(C[C@H]3O[C@H]31)[C@@H]24`: the GI50 with HT29 colon was 29.2 µM; with COLO 205 colon it was 34.4 µM; in the assay on PC-3 prostate it was 52.7 µM; with TK-10 renal, more than 100 µM; in the assay on SF-268 CNS it was more than 100 µM; with SR leukemia it was 24 µM. Moreover, the GI50 with SW-620 colon is 35.9 µM; in the assay on U251 CNS it was 43 µM; with OVCAR-5 ovarian, more than 100 µM; in the assay on HCT-15 colon, 33.5 µM. Further, the TGI in the assay on HT29 colon, with COLO 205 colon, in the assay with PC-3 prostate, in the assay with TK-10 renal, in the assay on SF-268 CNS and with SR leukemia was more than 100 µM in each case. In addition, the TGI with SW-620 colon, in the assay on U251 CNS, in the assay with OVCAR-5 ovarian and with HCT-15 colon was more than 100 µM throughout.
Turning to `O=C1Nc2ccc(I)cc2/C1=C/c1cc(Br)c(O)c(Br)c1`, the GI50 in the assay with HT29 colon is > 20.6 µM and 13.5 µM; with COLO 205 colon, 24.3 µM and 18.3 µM; with PC-3 prostate, > 17.7 µM and 23.3 µM; with TK-10 renal, > 25 µM and 31.1 µM; in the assay with SF-268 CNS, > 21.9 µM and 18.2 µM; in the assay on SR leukemia, more than 49.5 µM. The GI50 with SW-620 colon was 24.8 µM and 22 µM; in the assay on U251 CNS, > 24.1 µM and 15.1 µM; in the assay with OVCAR-5 ovarian, > 25 µM and 21.5 µM; in the assay with HCT-15 colon it was > 16 µM and 17.2 µM. In addition, the TGI in the assay with HT29 colon is > 25 µM and 52.5 µM; in the assay with COLO 205 colon, > 25 µM and 71.4 µM; in the assay on PC-3 prostate it was more than 74.7 µM; in the assay with TK-10 renal, more than 92.3 µM; in the assay with SF-268 CNS, > 25 µM and 68.8 µM; in the assay on SR leukemia it was 98.9 µM. Further, the TGI with SW-620 colon is > 25 µM and 51.1 µM; with U251 CNS it was > 25 µM and 36.3 µM; in the assay with OVCAR-5 ovarian it was > 25 µM and 51.7 µM; in the assay with HCT-15 colon, more than 65.8 µM.
As to `CCCN1CCCC(c2ccc(Nc3nc(Nc4cc(F)ccc4C(N)=O)c4cc[nH]c4n3)c(OC)c2)C1` (centres undefined), the GI50 was 0.0108 µM in the assay with HT29 colon; 0.015 µM in the assay with COLO 205 colon; 4.17 µM in the assay with PC-3 prostate; 0.622 µM in the assay with TK-10 renal; 2.84 µM in the assay with SF-268 CNS; 0.0112 µM in the assay on SR leukemia. In addition, the GI50 in the assay on SW-620 colon was 0.106 µM; in the assay on U251 CNS, 2.57 µM; in the assay on OVCAR-5 ovarian it was 0.556 µM; in the assay with HCT-15 colon, 0.437 µM. The TGI was found to be 3.15 µM in the assay with HT29 colon; 1.23 µM in the assay with COLO 205 colon; 9.6 µM in the assay on PC-3 prostate; 4.39 µM with TK-10 renal; 6.07 µM in the assay on SF-268 CNS; 7.99 µM with SR leukemia. Also, the TGI in the assay on SW-620 colon is 3.66 µM; with U251 CNS it was 5.58 µM; in the assay with OVCAR-5 ovarian, 5.36 µM; with HCT-15 colon it was 5.47 µM.
`O=c1[nH]c2c(ccc3cnccc32)c2c1CCC2`: the GI50 in the assay with HT29 colon is 0.447 µM; in the assay with COLO 205 colon, 0.241 µM; in the assay with PC-3 prostate, 0.288 µM; in the assay on TK-10 renal, 0.331 µM; in the assay on SF-268 CNS it was 0.333 µM; in the assay on SW-620 colon, 0.308 µM. Also, the values for the GI50 in the assay with U251 CNS, with OVCAR-5 ovarian and with HCT-15 colon were 0.33 µM, 0.461 µM and 0.357 µM, respectively. Moreover, the TGI in the assay on HT29 colon is more than 100 µM; in the assay on COLO 205 colon, 0.677 µM; in the assay with SF-268 CNS it was 37.3 µM; in the assay on SR leukemia it was more than 100 µM; in the assay on SW-620 colon, 1.84 µM; in the assay with U251 CNS it was more than 100 µM. Moreover, the TGI in the assay on OVCAR-5 ovarian and in the assay with HCT-15 colon was more than 100 µM in each case.
`CN1CC[C@H](N(C)C(=O)N2CC(c3cc(F)ccc3F)=C[C@@]2(CO)c2ccccc2)[C@H](F)C1`: the GI50 in the assay on HT29 colon is 0.0411 µM; in the assay with PC-3 prostate, 0.0409 µM; in the assay with TK-10 renal, 27.7 µM; in the assay with SF-268 CNS it was 0.0279 µM; in the assay with SR leukemia, 0.00871 µM; with SW-620 colon, 0.00854 µM. In addition, the GI50 was 0.0669 µM and 0.0212 µM with OVCAR-5 ovarian; 0.00418 µM with HCT-15 colon. For the same molecule, the TGI is more than 100 µM in the assay on HT29 colon; 3.77 µM in the assay on COLO 205 colon; more than 100 µM with PC-3 prostate; more than 100 µM with TK-10 renal; more than 100 µM in the assay with SF-268 CNS; 40.5 µM in the assay on SR leukemia. Further, the TGI in the assay with SW-620 colon, with U251 CNS, with OVCAR-5 ovarian and in the assay with HCT-15 colon was more than 100 µM in each case.
For the molecule `O=C(CNC(=O)c1cccc2ccccc12)Nc1ccccc1Oc1ccc(O)cc1`, the GI50 in the assay on HT29 colon was 0.992 µM; in the assay on COLO 205 colon it was 0.796 µM; in the assay with PC-3 prostate, 1.31 µM; in the assay on TK-10 renal it was 16.9 µM; in the assay on SF-268 CNS, 3.31 µM; in the assay with SR leukemia, 0.459 µM. The GI50 in the assay with SW-620 colon was 0.911 µM; in the assay with U251 CNS, 1.41 µM; with OVCAR-5 ovarian it was 6.3 µM; in the assay with HCT-15 colon it was 0.909 µM. Besides, the TGI in the assay on HT29 colon is more than 25 µM; in the assay on COLO 205 colon it was 3.56 µM; in the assay with PC-3 prostate, more than 25 µM; in the assay with TK-10 renal, more than 25 µM; with SF-268 CNS it was more than 25 µM; with SR leukemia it was more than 25 µM. The TGI in the assay with SW-620 colon, in the assay with U251 CNS, in the assay on OVCAR-5 ovarian and with HCT-15 colon was more than 25 µM in each case.
With `CCN(CC)CCN1C(=O)c2cccc3cc(N)cc(c23)C1=O`, the TGI is 18.1 µM in the assay with HT29 colon; 16.8 µM in the assay on COLO 205 colon; more than 100 µM in the assay on PC-3 prostate; more than 100 µM in the assay on TK-10 renal; more than 100 µM in the assay on SF-268 CNS; 39.8 µM in the assay with SR leukemia. In addition, the TGI with SW-620 colon was 83.3 µM; with U251 CNS it was more than 100 µM; in the assay on OVCAR-5 ovarian, 15.7 µM; with HCT-15 colon, more than 100 µM.
As to `Nc1c2ccccc2nc2ccccc12`, the GI50 in the assay with HT29 colon is 0.98 µM and 1.94 µM; in the assay with COLO 205 colon it was 0.966 µM and 1.83 µM; with PC-3 prostate it was 2.24 µM and 3.13 µM; in the assay with TK-10 renal, 2.07 µM and 4.61 µM; in the assay on SF-268 CNS, 1.63 µM and 3.47 µM; with SR leukemia, 0.855 µM and 2.78 µM. Besides, the GI50 in the assay on SW-620 colon was 1.06 µM and 3.06 µM; in the assay with U251 CNS it was 2.16 µM and 3.34 µM; with OVCAR-5 ovarian, 2.71 µM and 3.36 µM; with HCT-15 colon it was 1.95 µM and 2.27 µM. For the same molecule, the TGI with HT29 colon is 3.23 µM and 7.34 µM; with COLO 205 colon it was 2.36 µM and 4.45 µM; with PC-3 prostate, 9.38 µM and 15.9 µM; with SF-268 CNS it was 4.45 µM and 19.7 µM; in the assay on SR leukemia, 6.84 µM and 16.6 µM; in the assay with SW-620 colon it was 5.95 µM and 22.6 µM. The TGI is 8 µM and 13.1 µM in the assay with U251 CNS; 13.4 µM and 8.16 µM in the assay on OVCAR-5 ovarian; 11.1 µM and 7.23 µM with HCT-15 colon.

The record behind these values is PubChem BioAssay (NCI).
